Results as given in patent publication US10662183B2, “Inhibitors of myocardin-related transcription factor and serum response factor (MRTF/SRF)-mediated gene transcription and methods for use of the same” (THE REGENTS OF THE UNIVERSITY OF MICHIGAN, priority 2014, dated 2020).

Tested on: SRE.L-firefly luciferase reporter (Rho/MKL1 pathway) in PC-3 prostate cancer cells
Experiment: SRE.L-luciferase reporter assay
Assay type: cell-based
Settings: 19 h, PC-3 cells transfected with Gα12Q231L, SRE.L and pRL-TK reporters; compound 19 hrs
In short: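 PC-3 cells co-transfected with Gα12Q231L (2 ng), SRE.L-firefly (50 ng) and pRL-TK Renilla (7 ng) reporters, then treated with 0–100 μM compound for 19 h at 37° C. in 0.5% FBS DMEM. Dual-luciferase luminescence expressed as % inhibition vs DMSO; WST-1 viability at 450 nm; n=3 in triplicate.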

| Structure (SMILES) | IC50 |
| --- | --- |
| O=C(Nc1c(F)cccc1F)C1CCCN(C(=O)c2cccc(-c3ccco3)c2)C1 (centres unmarked) [Example E-097, N-(2,6-difluorophenyl)-1-(3-(furan-2-yl)benzoyl)piperidine-3-carboxamide] | 32 µM |
| O=C(Nc1ccc(Cl)cc1)C1CN(C(=O)c2cccc(-c3ncc[nH]3)c2)CC(F)(F)C1 (centres unmarked) [Example E-098, 1-(3-(1H-imidazol-2-yl)benzoyl)-N-(4-chlorophenyl)-5,5-difluoropiperidine-3-carboxamide] | 10 µM |
| O=C(Nc1ccccc1Cl)C1CCCN(C(=O)c2cccc(-c3ccco3)c2)C1 (centres unmarked) [Example E-101, N-(2-chlorophenyl)-1-(3-(furan-2-yl)benzoyl)piperidine-3-carboxamide] | 5.6 µM |
| O=C(Nc1ccc(F)cc1)C1CCCN(C(=O)c2cccc(-c3ccco3)c2)C1 (centres unmarked) [Example E-105, N-(4-fluorophenyl)-1-(3-(furan-2-yl)benzoyl)piperidine-3-carboxamide] | 13 µM |
| O=C(Nc1ccc(Cl)cc1)C1CN(C(=O)c2cccc(-c3cn[nH]c3)c2)CC(F)(F)C1 (centres unmarked) [Example E-106, 1-(3-(1H-pyrazol-4-yl)benzoyl)-N-(4-chlorophenyl)-5,5-difluoropiperidine-3-carboxamide] | 15 µM |
| O=C(Nc1ccc(Cl)cc1)C1CCN(C(=O)c2cccc(-c3ccco3)c2)C1 (centres unmarked) [Example E-107, N-(4-chlorophenyl)-1-(3-(furan-2-yl)benzoyl)pyrrolidine-3-carboxamide] | 14 µM |
| O=C(Nc1ccc(Cl)cc1)C1CCCN(C(=O)c2ccc(-n3cccc3)cc2)C1 (centres unmarked) [Example E-109, 1-(4-(1H-pyrrol-1-yl)benzoyl)-N-(4-chlorophenyl)piperidine-3-carboxamide] | 6.3 µM |
| Cc1ccc(NC(=O)C2CCCN(C(=O)c3cccc(-c4ccco4)c3)C2)cc1 (centres unmarked) [Example E-111, 1-(3-(furan-2-yl)benzoyl)-N-(p-tolyl)piperidine-3-carboxamide] | 15 µM |
| O=C(NCc1ccc(Cl)cc1)C1CCCN(C(=O)c2cccc(-c3ccco3)c2)C1 (centres unmarked) [Example E-112, N-(4-chlorobenzyl)-1-(3-(furan-2-yl)benzoyl)piperidine-3-carboxamide] | 21 µM |
| CCNc1ccc(CN2CCCC(C(=O)Nc3ccc(Cl)cc3)C2)cc1 (centres unmarked) [Example E-113, N-(4-chlorophenyl)-1-(4-(ethylamino)benzyl)piperidine-3-carboxamide] | 8 µM |

Stronger by IC50, values ahead:

| IC50 | Structure (SMILES) |
| --- | --- |
| 1.1 µM | O=C(Nc1ccc(Cl)cc1)C1CN(C(=O)c2cccc(-c3ccccn3)c2)CC(F)(F)C1 (centres unmarked) [Example E-096, N-(4-chlorophenyl)-5,5-difluoro-1-(3-(pyridin-2-yl)benzoyl)piperidine-3-carboxamide] |
| 3.3 µM | O=C(Nc1ccc(Cl)cc1)C1CN(C(=O)c2cccc(-c3cncnc3)c2)CC(F)(F)C1 (centres unmarked) [Example E-099, N-(4-chlorophenyl)-5,5-difluoro-1-(3-(pyrimidin-5-yl)benzoyl)piperidine-3-carboxamide] |
| 0.91 µM | O=C(Nc1ccc(Cl)cc1)C1CN(C(=O)c2cccc(-c3cccnc3)c2)CC(F)(F)C1 (centres unmarked) [Example E-100, N-(4-chlorophenyl)-5,5-difluoro-1-(3-(pyridin-3-yl)benzoyl)piperidine-3-carboxamide] |
| 2.9 µM | N#Cc1ccc(NC(=O)C2CCCN(C(=O)c3cccc(-c4ccco4)c3)C2)cc1 (centres unmarked) [Example E-104, N-(4-cyanophenyl)-1-(3-(furan-2-yl)benzoyl)piperidine-3-carboxamide] |
| 2.9 µM | O=C(Nc1ccc(Cl)cc1)C1CCCN(Cc2ccc(-n3cccc3)cc2)C1 (centres unmarked) [Example E-110, 1-(4-(1H-pyrrol-1-yl)benzyl)-N-(4-chlorophenyl)piperidine-3-carboxamide] |
| 1.6 µM | O=C(Nc1ccc(Cl)cc1)C1CCCN(Cc2ccc(-n3cccn3)cc2)C1 (centres unmarked) [Example E-114, 1-(4-(1H-pyrazol-1-yl)benzyl)-N-(4-chlorophenyl)piperidine-3-carboxamide] |
| 5.2 µM | O=C(Nc1ccc(Cl)cc1)C1CCCN(C(=O)c2cccc(-n3ccnc3)c2)C1 (centres unmarked) [Example E-115, 1-(3-(1H-imidazol-1-yl)benzoyl)-N-(4-chlorophenyl)piperidine-3-carboxamide] |
